# Results reported in patent publication US20260335293A1, “USE OF NOVEL COMPOUND FOR TREATING INTRACTABLE DISEASES” (YJ CERAPEUTICS INC., priority 2023, published 2026).
# Legend:
# Type in all cases: in vivo, Sprague-Dawley rats
# [1] = tested on: neuropathic pain (mechanical allodynia) in SCI, LSS and SNI animal models; assay: Mechanical allodynia (von Frey, 50% threshold) in SCI, LSS and SNI neuropathic pain models
# Method: (§1) To be used as a central nerve injury animal model, a traumatic spinal cord injury (SCI) model was prepared (FIG. 1A). Specifically, 230 to 250 g of male adult Sprague-Dawley rats were anesthetized by intraperitoneal injection of chloral hydrate (500 mg/kg), and then the back and neck regions were shaved, and the spinal cord under the back and neck regions was exposed without damaging the dura mater, and a laminectomy was performed at T9 to T10 levels. To stabilize the spine, the spinous processes of T8 and T11 were fixed, and the spine was damaged by free-falling a 10 g weight from a height of 25 mm using an NYU impactor onto the back surface of the exposed spinal cord and then the rats were left in a temperature and humidity-controlled chamber overnight while covering the muscles and skin. After surgery, the rats were subcutaneously injected with a supplement solution (5 ml, lactated ringer) and injected with antibiotics (gentamicin, 5 mg/kg, intramuscular injection) once daily for 5 days. The body weight, remaining food, and the weight of water were confirmed and recorded for all animals, and the bladder was emptied twice daily by passive bladder massage until reflex micturition was established. At this time, a Sham group was a group that was subjected to only laminectomy without damage.
# To be used as a peripheral nerve injury animal model, a lumbar spinal stenosis (LSS) model was prepared (FIG. 1B). Specifically, 260 to 280 g of adult male Sprague-Dawley rats were anesthetized with intraperitoneal injection of chloral hydrate (500 mg/kg), the back region was shaved, and then the spinal plate was exposed at L4 to S2 levels. After removing the ligamentous section between L4 and L5, a trapezoidal silicone block (1.00 mm long×1.3 to 1.2 mm wide×1.0 mm high) was inserted into the epidural space below the L5 and L6 spinal plates without damaging the dural sac. At this time, a Sham group was a group that was subjected to only posterior […] on the animal without inserting a silicone block.
# To be used as a peripheral nerve injury animal model, a sciatic nerve injury (SNI) model was prepared (FIG. 1C). Specifically, 200 to 220 g of male adult Sprague-Dawley rats were anesthetized by intraperitoneal injection of chloral hydrate (500 mg/kg), and then three terminal branches (tibial, common peroneal, and sural nerves) of the right sciatic nerve were approached, and the tibia nerve and the peroneal nerve were tightly ligated with 4-0 silk, and neurectomy was performed at a distal 3 mm position of the ligation site. At this time, a Sham group was a group that exposed only the sciatic nerve without damage.
# In order to confirm a neuropathic pain inhibitory effect of YJ102 (Chemical Formula 1), a compound of the present disclosure, in the three nerve injury animal models prepared in Example 1 above, rats having pain on week 3 (SNI model) or week 4 (SCI model and LSS model) after surgery were selected and administered orally (p.o.) at 10 mg/kg or 20 mg/kg of YJ102 dissolved in a solution of DMSO, methyl pyrrolidinone, and water (1:1.5:1), or intraperitoneally injected (i.p. injection) at 1, 2, or 5 mg/kg of YJ102. In a positive control group, gabapentin or pregabalin dissolved in saline was intraperitoneally injected at a concentration of 5 mg/kg, and in a Vehicle group, the same amount of a solution of DMSO, methyl pyrrolidinone, and water was administered. Thereafter, in order to measure mechanical allodynia, the rats were located at the bottom of a transparent plastic box (10 cm×10 cm) on top of a wire mesh (3 mm×3 mm) and subjected to an adaptation period for approximately 20 minutes. Von-Frey filaments were applied to the soles of both paws and used with stiff nylon von-Frey monofilament series ([…], Stoelting, WoodDale, IL, USA; equivalent in grams to 0.4, 0.6, 1.0, 2.0, 4.0, 6.0, 8.0 and 15.0) with logarithmic increases in tactile (mechanical) sensitivity. […]
# mTOR pathway = mTOR pathway in SNI model, Western blot; conditions: 4 weeks after nerve injury
# Method: FIG. 5B is a diagram showing results of analyzing the expression of factors associated with a mTOR signaling pathway in an inflammation-inhibiting mechanism in an SNI animal model by Western blot.
# To determine through which signaling pathway YJ102 inhibited a neuroinflammatory response, there was analyzed increased expression and activation of histone demethylase JMJD3 and expression changes of factors associated with JAK/STAT3 pathway, mTOR pathway, and TRPM7-mediated pathway, which were known as important regulatory mechanisms and epigenetic regulators mediating the neuroinflammatory response, in the tissues of the SNI animal model 4 weeks after nerve injury.
# [2] = tested on: urinary disturbances caused by spinal cord injury (bladder function); assay: Urinary function (residual urine volume, UBFS, bladder size and weight) in SCI model; conditions: 5 mg/kg i.p.
# Method: as §1
# In order to confirm the effect of YJ102 (Chemical Formula 1), a compound of the present disclosure, on urinary disturbances caused by spinal cord injury, immediately after preparing the traumatic spinal cord injury (SCI) model (FIG. 1A) prepared in Example 1 above, YJ102 was dissolved in DMSO, methyl pyrrolidinone, and water (1:1.5:1) and administered intraperitoneally at 5 mg/kg, and then intraperitoneally administered at 24-hour intervals for 7 days from the next day. Thereafter, the effect of improving bladder functions was analyzed through a residual urine volume test and a urinary bladder function score (UBFS). […] Specifically, in order to determine the amount of urine remaining in the bladder after spinal cord injury, bladder extrusion was performed twice a day by applying pressure to the central bottom portion of the lower abdomen using the index and middle fingers to empty the bladder, and the expelled urine was collected in a catheter and its volume was recorded. In addition, the UBFS was assessed daily using a 0-4 point UBFS (0=total loss of function (manual bladder extrusion 3 times a day, bloody urine), 1=partial restoration of UBF (manual extrusion 2 times a day, bloody urine), 2=partial restoration of UBF (partial/complete release of sphincter spasm, manual extrusion once a day, persistently bloody urine), 3=high restoration (manual extrusion once a day, no bloody urine), and 4=normal UBF) as in the reference (Zeng et al., Spinal Cord (2017) 55:834-839).
# MPO-positive neutrophils = assay: Introduction of neutrophils (MPO) into bladder of SCI model, immunofluorescence; conditions: day 1 after SCI
# [3] = tested on: urothelium (TUNEL-positive cells); assay: Urothelial cell apoptosis in SCI model, TUNEL staining; conditions: day 3 after SCI; vs Vehicle
# UPIII = assay: Urothelial marker UPIII in SCI model, Western blot; conditions: day 3 after SCI
# [4] = p.o. 10 mg/kg or 20 mg/kg, all three models (SCI, LSS, SNI)
structure (smiles),measurement,setting,value
CCc1ccc(N(C(=O)COC)c2nc3cc(Cl)ccc3o2)cc1 [YJ102],"duration of analgesic effect relative to existing drugs (gabapentin, pregabalin)",[1]; i.p.,more than three times longer
same,analgesic effect relative to gabapentin or pregabalin,"[1]; i.p., at the same concentration as gabapentin or pregabalin",more than twice as high
same,duration of analgesic effect,[1]; [4],≥ 4 h
same,mechanical allodynia threshold increased from (time after administration),[1]; [4],30 min
same,activity of S6,mTOR pathway,inhibiting the activity
same,activity of p70S6kinase,mTOR pathway,inhibiting the activity
same,bladder size,[2],significantly reduced
same,bladder weight,[2],significantly reduced
same,residual urine volume,"[2]; vs Veh, from the first day of administration",significantly reduced
same,bladder function restoration analysis using the UBFS (printed as residual urine volume),"[2]; vs Vehicle, day 3 and day 7 after SCI",significantly increased
same,introduction of MPO-positive neutrophils into the bladder,MPO-positive neutrophils,significantly inhibited
same,number of TUNEL-positive cells in the urothelium,[3],significantly reduced
same,reduction in level of UPIII (urothelial loss),UPIII,inhibited
